For assay [1], the system named is JJN-3 multiple myeloma cells. The assay is classed as cell-based, human. The note with it: JJN-3, 10 μM. The source says: Minor effects on the proliferation of the IH-1 and RPMI 8226 cell lines are seen. […] The number of viable cells was detected based on quantitation of ATP by luminescent signal in correlation to a standard curve prepared for each cell line. Results are based on 3-5 biological replicates for each condition, error bars show standard deviation of mean.
Multiple myeloma cells JJN-3 (DSMZ (Germany) no. ACC 541), ANBL-6 (Cellosaurus accession number CVCL_5425, obtained from Dr Diane Jelinek, Mayo Clinic, Rochester, Minn.), INA-6 (Cellosaurus accession number CVCL_5209, obtained from Dr M. Gramatzki, University of Erlangen-Nurnberg, Erlangen, Germany), RPMI-8226 (ATCC CCL-155), and IH-1 (Cellosaurus accession number CVCL_WZ44, established from the pleural effusion of a myeloma patient by Myeloma research group, IKOM, NTNU, Trondheim, Norway) were grown in RPMI-1640 (Sigma-Aldrich Norway, Oslo, Norway) supplemented with 100 nM penicillin/streptomycin and 10% FCS, and for ANBL-6, IH-1 and INA-6 cells 2 ng/ml recombinant IL-6 (Gibco, Thermo Fisher Scientific, Waltham, Mass., USA). Murine multiple myeloma Vk*MYC cells were obtained from M.D. Leif Bergsagel (Mayo Clinic, Richester, Minn., USA) and cultured in RPMI-1640 supplemented with 2% human serum (B^+, The blood bank, St Olav's Hospital, Trondheim, Norway), 100 nM penicillin/streptomycin, L-Glutamine (2 mM) and recombinant IL-6 (1 ng/ml). HEK293T (ATCC CRL-3216) were cultured in DMEM with 10% FCS. THP-1 TRAM knockout (KO) and TLR4 KO cell lines, and matching lentivirally transduced control cell lines, were differentiated in the same way as wild type (WT) THP-1. TRAM KO THP-1 cell line is described in Yurchenko et al. (supra).
To evaluate the potential impact of the P7 peptide on proliferation of tumour cells of lymphoid origin, we performed a CellTiter-Glo Luminescent Cell Viability Assay to address proliferation of several multiple myeloma (MM) cell lines. […]

Assay [2] relates to IH-1 multiple myeloma cells. In words: CellTiter-Glo cell viability assay, IH-1. The assay is classed as cell-based, human. The note with it: IH-1, 10 μM, 48 h. The procedure: Minor effects on the proliferation of the IH-1 and RPMI 8226 cell lines are seen. Cells were seeded at the level shown (left-hand bar of each set) then incubated in medium containing water, 10 μM penetratin or 10 μM P7-A4-Pen for 48 hr (except for INA-6 cells, which were incubated with 12.5 μM penetratin or 12.5 μM P7-A4-Pen). The number of viable cells was detected based on quantitation of ATP by luminescent signal in correlation to a standard curve prepared for each cell line. Results are based on 3-5 biological replicates for each condition, error bars show standard deviation of mean.
Multiple myeloma cells JJN-3 (DSMZ (Germany) no. ACC 541), ANBL-6 (Cellosaurus accession number CVCL_5425, obtained from Dr Diane Jelinek, Mayo Clinic, Rochester, Minn.), INA-6 (Cellosaurus accession number CVCL_5209, obtained from Dr M. Gramatzki, University of Erlangen-Nurnberg, Erlangen, Germany), RPMI-8226 (ATCC CCL-155), and IH-1 (Cellosaurus accession number CVCL_WZ44, established from the pleural effusion of a myeloma patient by Myeloma research group, IKOM, NTNU, Trondheim, Norway) were grown in RPMI-1640 (Sigma-Aldrich Norway, Oslo, Norway) supplemented with 100 nM penicillin/streptomycin and 10% FCS, and for ANBL-6, IH-1 and INA-6 cells 2 ng/ml recombinant IL-6 (Gibco, Thermo Fisher Scientific, Waltham, Mass., USA). […]

The subject of assay [3] is TLR4. Kind of assay: Cytokine expression in primary human monocytes stimulated by LPS or E. coli particles. The assay is classed as cell-based. As to the method: Use of human monocytes from blood donors was approved by the Regional Committees for Medical and Health Research Ethics at the Norwegian University of Science and Technology (NTNU). Human monocytes were isolated from buffy coats by adherence as previously described (Husebye et al., Immunity 33: 583-596, 2010). Briefly, freshly prepared buffy coat (The Blood Bank, St. Olav's Hospital, Trondheim, Norway) was diluted in 100 ml PBS, and PBMCs isolated by density gradient centrifugation using Lymphoprep (Axis-Shield) according to the manufacturer's instructions. […] Cells were counted using a Z2 Coulter Particle Count and Size Analyzer (Beckman Coulter) on program B, re-suspended in RPM11640 (Sigma) supplemented with 5% pooled human serum at a concentration of 8×10^6 per ml and seeded into 6-well (1 ml per well) or 24-well (0.5 ml per well) cell culture dishes. […] Total RNA was isolated from the cells using Qiazol reagent #79306 from QIAGEN, and chloroform extraction followed by purification on RNeasy Mini columns with DNAse digestion (Qiagen). cDNA was prepared using the Maxima First Strand cDNA Synthesis Kit for quantitative real-time polymerase chain reaction (RT-qPCR) (Thermo Fisher Scientific) according to the manufacturer's protocol. qPCR was performed using the PerfeCTa qPCR FastMix (Quanta Biosciences) in replicates and cycled in a StepOnePlusTM Real-Time PCR cycler. […]

“Also recorded” adds a separate entry of the source.

Consider “Ac-ITVAASVTLTGRQIKIWFQNRRMKWKK-NH2 [Peptide P7-A4-Pen]”, for which the figures for the cell proliferation entry in assay [1] (48 h) and in assay [2] were “strongly inhibited cell proliferation” and “Minor effects; also recorded: inhibited cell proliferation”, respectively. In assay [1] (48 h (LDH assay not shown)), the cell death entry is reported as “induced cell death”.

Regarding “Ac-ITVYASVTLTGRQIKIWFQNRRMKWKK-NH2 [Peptide P7-Pen]”, the “IFNβ, TNF, IL-1β and IL-6 expression in response to TLR4 stimulation” value in assay [3] (15 μM, 30 min pre-treatment, LPS 100 ng/ml, all tested donors) was “significantly decreased”. The “reducing cytokine secretion by monocytes stimulated by E. coli particles” value in assay [3] (P7-Pen 15 μM vs P7-Arg11 10 μM) is recorded as “more effective than P7-Arg11”.

(Values after patent US20230220047A1, “PEPTIDES FOR TREATMENT OF SEPSIS AND CANCER” (NORWEGIAN UNIVERSITY OF SCIENCE AND TECHNOLOGY (NTNU), priority 2020, published 2023).)
